The text below walks through data of BindingDB's records for doi:10.1021/acs.biochem.5b00106 (Louis Stokes Cleveland Veterans Affairs Medical Center, 2015).

The target of one experiment is VIM-24 (Klebsiella pneumoniae, UniProt E0AFT6). In words: Direct Competition Assay. The method, then:
(§1) The Ki for each inhibitor was determined by direct competition assays under steady-state conditions. The initial velocity was measured in the presence of a constant concentration of enzyme (3 nM for VIM-2 and 4 nM for VIM-24) with increasing concentrations of inhibitor (5−60 μM) against a fixed concentration (5KM) of the indicator substrate, NCF, as previously described. The reactionswere started by addition of VIM-2 or VIM-24 to substrate or to mixtures of substrate and inhibitor.

The target of experiment [1] is Metallo-beta-lactamase VIM-2 (Klebsiella pneumoniae, UniProt Q3Y6Q3). Nature of the experiment: Direct Competition Assay. The method, then:
as §1

On to `O=C(O)[C@H]1CS[C@@H]2CS[C@@H](CS)N12` [D-CS319], for which the inhibitory constant (Ki) (in general, the dissociation constant of the complex between target and ligand, obtained from inhibition or displacement) at VIM-24 was 11 µM; in experiment [1], 5.4 µM.
The corresponding values for `CC1(C)S[C@@H]2CS[C@@H](CS)N2[C@H]1C(=O)O` [D-VC26] are 12 µM and 14 µM.
Consider `O=C(O)[C@@H]1CS[C@H]2CS[C@H](CS)N21` [L-CS319], for which the Ki at VIM-24 was found to be 6 µM; in experiment [1], 3.7 µM.
Taken in the same sequence, the figures for `CC1(C)S[C@H]2CS[C@H](CS)N2[C@@H]1C(=O)O` [L-VC26] were 4.9 µM and 3.8 µM.
